The results in this text go back to patent EP4748841A1, “BICYCLO[5,6] IMIDAZOLE PYRIMIDONE DERIVATIVE AND PREPARATION METHOD THEREFOR AND USE THEREOF” (Shujing Biopharma Co., Ltd, priority 2023, dated 2025).

One series addresses T1, Lp-PLA2 (Homo sapiens, UniProt Q13093).
T1 construct: from tissue; host or cells: pooled (mixed) human plasma
T1 sequence (Q13093 22-441): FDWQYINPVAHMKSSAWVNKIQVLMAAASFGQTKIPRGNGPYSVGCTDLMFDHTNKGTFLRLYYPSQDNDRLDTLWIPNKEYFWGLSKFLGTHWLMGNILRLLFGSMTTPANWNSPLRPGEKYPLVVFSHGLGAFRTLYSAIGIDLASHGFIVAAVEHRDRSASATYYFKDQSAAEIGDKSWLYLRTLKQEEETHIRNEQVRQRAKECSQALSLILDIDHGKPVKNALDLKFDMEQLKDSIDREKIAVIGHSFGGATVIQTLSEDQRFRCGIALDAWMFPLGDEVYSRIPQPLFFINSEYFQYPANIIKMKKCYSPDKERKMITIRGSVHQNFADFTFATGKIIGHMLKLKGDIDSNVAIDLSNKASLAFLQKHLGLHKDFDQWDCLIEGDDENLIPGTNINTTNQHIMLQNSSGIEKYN
Briefly: Inhibitory activity against Lp-PLA2 in human plasma (Thio-PAF assay). The format is biochemical. As to conditions: 2-thio-PAF substrate, 30 min pre-incubation. An excerpt: The literature reports that 2-Thio-PAF, commercially available from Cayman Chemical, is a substrate for PAF hydrolase (PAF-AH). After its cleavage by PAF-AH, the free thiol released at the sn-2 position can react with 7-diethylamino-3-(4'-maleimidophenyl)-4-methylcoumarin (CPM), resulting in increased fluorescence. Thus, Lp-PLA2 inhibitors can prevent this cleavage, and no increase in fluorescence is observed. In this experiment, the human plasma assay employed the same thioester analog of PAF as described in the recombinant human Lp-PLA2 assay described above.
• (1) The Thio-PAF assay was performed as a quenched 75 µL assay. A compound source plate was prepared by preparing 1:4 (v/v) serial diluents of the compounds in pure DMSO in a 96-well microplate. • (2) 1 µL of each test compound from the compound source plate was transferred into a 96-well microplate containing 40 µL of pre-thawed mixed human plasma by a Rainin multichannel pipette, and the plasma was thawed at room temperature and centrifuged at 2000 rpm for 10 min. The plate was shaken on a microplate shaker for 2 min for uniform mixing. • (3) After 30 min of pre-incubation at room temperature, 10 µL of a substrate solution was added sequentially to the 96-well microplate described above by a Rainin multichannel pipette. The substrate solution contained 2.5 mM 2-thio-PAF (from an ethanol mother liquor), 32 µM CPM (from a DMSO mother liquor), and 3.2 mM N-ethylmaleimide (freshly prepared in DMSO for each experiment) in assay buffer (pH 7.4) consisting of 50 mM HEPES, 150 mM NaCl, and 1 mM CHAPS. After the addition was completed, the plate was immediately shaken for 2 min, and the reaction time for the substrate was 4 min in total. After the reaction was completed, the reaction was quenched with 25 µL of an aqueous solution of 5% trifluoroacetic acid. The plate was centrifuged at 1000 rpm for 1 min. • (4) The FLINT signal (FLINT380/480) was read using a microplate reader. • (5) IC50 data, curve fitting, and QC analyses were performed using GraphPad Prism 8.0 and Excel.

A short description of series [1]: Liver microsome stability experiment (cynomolgus monkey). The format is in vitro ADME. To be noted: pH 7.4, Cynomolgus monkey liver microsomes, 0.5 mg/mL; for CLint scaled at 1 µM: cynomolgus monkey, liver microsomes. The method, then:
This experiment aimed to evaluate the phase I metabolic stability of the compounds of the present disclosure in liver microsomes of SD rats, beagle dogs, cynomolgus monkeys, and humans.
• (1) Buffer preparation: 73.21 g of dipotassium hydrogen phosphate trihydrate and 10.78 g of potassium dihydrogen phosphate were dissolved in 4000 mL of ultrapure water. The pH of the solution was adjusted to within 7.40 ± 0.10 using 10% phosphoric acid or 1 M potassium hydroxide, resulting in a final concentration of 100 mM. • (2) Solution preparation and dilution: Stock solutions of the test compounds at a concentration of 10 mM were prepared in dimethyl sulfoxide (DMSO) and stored at 4 °C, and they were diluted into 100 µM working solutions with pure acetonitrile when used. A stock solution of the control compound testosterone at a concentration of 10 mM was prepared in DMSO and stored at -20 °C, and it was diluted into a 400 µM working solution with pure acetonitrile when used. • (3) Termination solution preparation: The termination solution was an acetonitrile solution containing an internal standard (terfenadine). The prepared termination solution was stored in a refrigerator at 2-8 °C. • (4) Liver microsome solution preparation: Liver microsomes from various species (SD rat, beagle dog, cynomolgus monkey, and human) were diluted into 20× working solutions using 100 mM potassium phosphate buffer. The final concentration of the liver microsomes in the reaction system was 0.5 mg/mL. • (5) Reduced nicotinamide adenine dinucleotide phosphate (NADPH) regeneration system preparation: Appropriate amounts of nicotinamide adenine dinucleotide phosphate (NADP), glucose-6-phosphate (G6P), magnesium chloride (MgCl2), and glucose-6-phosphate dehydrogenase (G6PDH) were weighed to prepare stock solutions at concentrations of 65.33 mM, 330 mM, 300 mM, and 250 Units/mL, respectively. The four stock solutions described above were each added to an appropriate amount of buffer, and the mixture was mixed well by gently inverting up and down. The final concentrations of NADP, G6P, MgCl2, and G6PDH in the NADPH regeneration system were 2.65 mM, 10.2 mM, 6.12 mM, and 2.45 Units/mL, respectively. • (6) Incubation process: The incubation was completed in 96-well plates. Several incubation plates were prepared and named T0, T5, T10, T20, T40, T60, and NCF60, respectively. The first 6 plates corresponded to reaction time points of 0 min, 5 min, 10 min, 20 min, 40 min, and 60 min, respectively. The NCF60 plate was incubated for 60 min with potassium phosphate buffer replacing the NADPH regeneration system solution. Samples under all conditions were prepared in triplicate.
2 µL of the test compound or control compound and 100 µL of microsome working solution (containing 1 mg/mL liver microsome protein) were added to each of the T0, T5, T10, T20, T40, T60, and NCF60 plates, and only the microsome working solution was added to the Blank 60 plate. The plates described above were then pre-incubated in a 37 °C water bath for about 10 min.
After the pre-incubation was completed, 98 µL of the NADPH regeneration system working solution was added to each sample well except for the NCF60 plate and the T0 plate to initiate the reaction, and 98 µL of potassium phosphate buffer was added to each well of the NCF60 plate. Therefore, for the sample wells containing the test sample or control substance working solution, the final concentrations of TC and testosterone in the reaction were 1 µM and 4 µM, respectively, the concentration of liver microsomes was 0.5 mg/mL, and the final concentrations of DMSO and acetonitrile in the reaction system were 0.01% (v/v) and 0.99% (v/v), respectively.
After incubation for an appropriate time (e.g., 5 min, 10 min, 20 min, 40 min, and 60 min), 600 µL of a termination solution (an acetonitrile solution containing 100 ng/mL […]) was added to each test compound sample well and control compound sample well to terminate the reaction. […]

Where two headings read alike, the source gives them in different places.

What is called IC50 is the concentration at which inhibition is half-maximal. In general, half-life refers to how long it takes for the measured level to halve.

At Lp-PLA2, `O=c1nc(OCc2cc(F)c(Oc3ccnc(C(F)(F)F)c3)c(F)c2)cc2n1C[C@H]1CCCN21` [Comparative Example 1, reference compound] had an IC50 of 16.4 nM. The CLint scaled at 1 µM in series [1] (read-out: CL(liver)) came out at 28.3 mL/min/kg; in series [1] (read-out: CLint(liver)), 81 mL/min/kg. In addition, the half-life at 1 µM in series [1] was determined as 23.1 min.

In the case of `O=c1nc(OCc2cc(F)c(Oc3ccnc(C(F)(F)F)c3)c(F)c2)cc2n1C[C@H]1CCN21` [Example 34-R], the IC50 at Lp-PLA2 was 3.3 nM. Moreover, the CLint scaled at 1 µM in series [1] (read-out: CL(liver)) was less than 8.2 mL/min/kg; in series [1] (read-out: CLint(liver)) it was less than 10 mL/min/kg. The molecule further showed a half-life at 1 µM in series [1] of more than 186 min.
